From PubChem BioAssay (NCI)
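Briefly, cells in 96-well plates were exposed to five compound concentrations for 48 h, and endpoints were estimated by linear interpolation. GI50 marks 50% less growth. Definition used: TGI = concentration required for complete inhibition of growth.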

Columns and labels:
Assay in all cases: NCI anticancer screen, dose series, 48 h
786-0 renal = test system: 786-0 renal
A498 renal = test system: A498 renal
A549 NSCLC = test system: A549 NSCLC
ACHN renal = test system: ACHN renal
BT-549 breast = test system: BT-549 breast
CAKI-1 renal = test system: CAKI-1 renal
CCRF-CEM leukemia = test system: CCRF-CEM leukemia
COLO 205 colon = test system: COLO 205 colon
DU-145 prostate = test system: DU-145 prostate
EKVX NSCLC = test system: EKVX NSCLC
HCC-2998 colon = test system: HCC-2998 colon
HCT-116 colon = test system: HCT-116 colon
HCT-15 colon = test system: HCT-15 colon
HL-60(TB) leukemia = test system: HL-60(TB) leukemia
HOP-62 NSCLC = test system: HOP-62 NSCLC
HOP-92 NSCLC = test system: HOP-92 NSCLC
HS 578T breast = test system: HS 578T breast
HT29 colon = test system: HT29 colon
IGROV1 ovarian = test system: IGROV1 ovarian
K-562 leukemia = test system: K-562 leukemia
KM12 colon = test system: KM12 colon
LOX IMVI melanoma = test system: LOX IMVI melanoma
M14 melanoma = test system: M14 melanoma
MALME-3M melanoma = test system: MALME-3M melanoma
MCF7 breast = test system: MCF7 breast
MDA-MB-231 breast = test system: MDA-MB-231 breast
MDA-MB-435 = test system: MDA-MB-435
MOLT-4 leukemia = test system: MOLT-4 leukemia
NCI-H226 lung = test system: NCI-H226 lung
NCI-H23 lung = test system: NCI-H23 lung
NCI-H460 lung = test system: NCI-H460 lung
NCI-H522 lung = test system: NCI-H522 lung
NCI/ADR-RES ovarian = test system: NCI/ADR-RES ovarian
OVCAR-4 ovarian = test system: OVCAR-4 ovarian
OVCAR-5 ovarian = test system: OVCAR-5 ovarian
OVCAR-8 ovarian = test system: OVCAR-8 ovarian
PC-3 prostate = test system: PC-3 prostate
RPMI-8226 leukemia = test system: RPMI-8226 leukemia
RXF 393 renal = test system: RXF 393 renal
SF-268 CNS = test system: SF-268 CNS
SF-295 CNS = test system: SF-295 CNS
SF-539 CNS = test system: SF-539 CNS
SK-MEL-2 melanoma = test system: SK-MEL-2 melanoma
SK-MEL-28 melanoma = test system: SK-MEL-28 melanoma
SK-MEL-5 melanoma = test system: SK-MEL-5 melanoma
SK-OV-3 ovarian = test system: SK-OV-3 ovarian
SN12C renal = test system: SN12C renal
SNB-19 CNS = test system: SNB-19 CNS
SNB-75 CNS = test system: SNB-75 CNS
SR leukemia = test system: SR leukemia
SW-620 colon = test system: SW-620 colon
T-47D breast = test system: T-47D breast
TK-10 renal = test system: TK-10 renal
U251 CNS = test system: U251 CNS
UACC-257 melanoma = test system: UACC-257 melanoma
UACC-62 melanoma = test system: UACC-62 melanoma
UO-31 renal = test system: UO-31 renal

O=C(NNc1nc2cc(F)c(F)cc2n2c(CN3CC4CNCC4C3)ccc12)c1ncccn1 (stereo not drawn)
GI50 (786-0 renal): 2180 nM
TGI (786-0 renal): 9.02 µM
GI50 (A498 renal): 2360 nM
TGI (A498 renal): 8.64 µM
GI50 (A549 NSCLC): 2820 nM
TGI (A549 NSCLC): 13.2 µM
GI50 (ACHN renal): 512 nM
TGI (ACHN renal): 10.7 µM
GI50 (BT-549 breast): 4.47 µM
TGI (BT-549 breast): 18.7 µM
GI50 (CAKI-1 renal): 756 nM
TGI (CAKI-1 renal): 11.9 µM
GI50 (CCRF-CEM leukemia): 1860 nM
TGI (CCRF-CEM leukemia): > 100 µM
GI50 (COLO 205 colon): 2810 nM
TGI (COLO 205 colon): 11.8 µM
GI50 (DU-145 prostate): 2310 nM
TGI (DU-145 prostate): 16.1 µM
GI50 (EKVX NSCLC): 1790 nM
TGI (EKVX NSCLC): 17.7 µM
GI50 (HCC-2998 colon): 4.14 µM
TGI (HCC-2998 colon): 19.3 µM
GI50 (HCT-116 colon): 1600 nM
TGI (HCT-116 colon): 14.5 µM
GI50 (HCT-15 colon): 526 nM
TGI (HCT-15 colon): 25.1 µM
GI50 (HL-60(TB) leukemia): 2620 nM
TGI (HL-60(TB) leukemia): 10.7 µM
GI50 (HOP-62 NSCLC): 1040 nM
TGI (HOP-62 NSCLC): 11.2 µM
GI50 (HOP-92 NSCLC): 6.46 µM
TGI (HOP-92 NSCLC): 28.3 µM
GI50 (HS 578T breast): 5.98 µM
TGI (HS 578T breast): 37 µM
GI50 (HT29 colon): 3.76 µM
TGI (HT29 colon): 32.2 µM
GI50 (IGROV1 ovarian): 1850 nM
TGI (IGROV1 ovarian): 12.3 µM
GI50 (K-562 leukemia): 2400 nM
TGI (K-562 leukemia): 74.5 µM
GI50 (KM12 colon): 3.18 µM
TGI (KM12 colon): 22.8 µM
GI50 (LOX IMVI melanoma): 1060 nM
TGI (LOX IMVI melanoma): 5.21 µM
GI50 (M14 melanoma): 1140 nM
TGI (M14 melanoma): 9.42 µM
GI50 (MALME-3M melanoma): 2530 nM
GI50 (MCF7 breast): 3.07 µM
TGI (MCF7 breast): 14 µM
GI50 (MDA-MB-231 breast): 3.64 µM
TGI (MDA-MB-231 breast): 21 µM
GI50 (MDA-MB-435): 3.85 µM
TGI (MDA-MB-435): 16.4 µM
GI50 (MOLT-4 leukemia): 3.14 µM
TGI (MOLT-4 leukemia): > 100 µM
GI50 (NCI-H226 lung): 2770 nM
TGI (NCI-H226 lung): 18.1 µM
GI50 (NCI-H23 lung): 3.48 µM
TGI (NCI-H23 lung): 16.2 µM
GI50 (NCI-H460 lung): 567 nM
TGI (NCI-H460 lung): 6.99 µM
GI50 (NCI-H522 lung): 4.37 µM
TGI (NCI-H522 lung): 21.2 µM
GI50 (NCI/ADR-RES ovarian): 5.29 µM
TGI (NCI/ADR-RES ovarian): 22.7 µM
GI50 (OVCAR-4 ovarian): 2800 nM
TGI (OVCAR-4 ovarian): 17.9 µM
GI50 (OVCAR-5 ovarian): 5.08 µM
TGI (OVCAR-5 ovarian): 25.4 µM
GI50 (OVCAR-8 ovarian): 2180 nM
TGI (OVCAR-8 ovarian): 12.8 µM
GI50 (PC-3 prostate): 3.22 µM
TGI (PC-3 prostate): 39.6 µM
GI50 (RPMI-8226 leukemia): 3.69 µM
TGI (RPMI-8226 leukemia): 55.7 µM
GI50 (RXF 393 renal): 2000 nM
TGI (RXF 393 renal): 9.33 µM
GI50 (SF-268 CNS): 1870 nM
TGI (SF-268 CNS): 14.8 µM
GI50 (SF-295 CNS): 847 nM
TGI (SF-295 CNS): 12.5 µM
GI50 (SF-539 CNS): 2760 nM
TGI (SF-539 CNS): 9.5 µM
GI50 (SK-MEL-2 melanoma): 4.23 µM
TGI (SK-MEL-2 melanoma): 20.7 µM
GI50 (SK-MEL-28 melanoma): 2830 nM
TGI (SK-MEL-28 melanoma): 14.8 µM
GI50 (SK-MEL-5 melanoma): 1650 nM
TGI (SK-MEL-5 melanoma): 4.4 µM
GI50 (SK-OV-3 ovarian): 1960 nM
TGI (SK-OV-3 ovarian): 14.8 µM
GI50 (SN12C renal): 3.06 µM
TGI (SN12C renal): 13.8 µM
GI50 (SNB-19 CNS): 3.53 µM
TGI (SNB-19 CNS): 29.1 µM
GI50 (SNB-75 CNS): 2190 nM
TGI (SNB-75 CNS): 13.6 µM
GI50 (SR leukemia): 1530 nM
TGI (SR leukemia): > 100 µM
GI50 (SW-620 colon): 2480 nM
TGI (SW-620 colon): 16.1 µM
GI50 (T-47D breast): 3.08 µM
TGI (T-47D breast): 14.2 µM
GI50 (TK-10 renal): 7.89 µM
TGI (TK-10 renal): 29.7 µM
GI50 (U251 CNS): 1900 nM
TGI (U251 CNS): 14.6 µM
GI50 (UACC-257 melanoma): 2800 nM
TGI (UACC-257 melanoma): 9.36 µM
GI50 (UACC-62 melanoma): 2570 nM
TGI (UACC-62 melanoma): 11.6 µM
GI50 (UO-31 renal): 448 nM
TGI (UO-31 renal): 10.1 µM
